# According to patent US20250319034A1, “MICROSPHERE PRODUCTION METHOD” (VITALTE LIFESCIENCES INC., priority 2024, published 2025):
# Test: T release study in saline incubation media
# Format: physicochemical
# Details: saline incubation media, 2, 4 and 6 hours
# Procedure: In order to compare the release rate results of hydrogel encapsulated T to pelleted T, larger gels had to be prepared as the T pellets which the hydrogels are intended to replace are 25 mg, where the E2 pellets are merely 6 mg. Thus, approximately 83 mg of hydrogel at 30% T loading and 1% HA were prepared. In order to achieve even or consistent crosslinking in these much larger hydrogel samples, Likarda's patented micromolds (shown in FIG. 21) were employed. After formation, the encapsulated T was removed from the molds and placed in tubes to be rotated for an hour. The encapsulated T hydrogels were then removed from the tubes and stored in Dulbecco's PBS buffer. The large hydrogel blocks encapsulating T were then tested and compared to 25 mg T pellets and micronized T powder.
# The T powder was produced as a 2.5 mg/mL slurry in buffer to reach the near saturation point of T in the buffer. Samples of the T powder slurry were removed from only the top layer of the slurry fluid to avoid aspirating T particles in the slurry that may have precipitated at to the bottom. T pellets were collected directly from the vials in which they were stored. The 83 mg hydrogels containing 30% T were collected from Dulbecco's PBS buffer, rinsed, and dried. Each of the collected samples was then placed in a separate container of incubation media (saline in this instance) for the release studies. […]
smiles,measurement,value
"C[C@]12CC[C@H]3[C@@H](CCC4=CC(=O)CC[C@@]43C)[C@@H]1CC[C@@H]2O [T powder, Testosterone]",approximate saturation level of T in saline,about 1.5 mg/L
